Data set [1] relates to HepG2 cells. Description: Growth inhibition of HepG2 cells, six days of incubation, sulforhodamin-B-method. As to conditions: six days of substance incubation, read-out: IC50-value (concentration in which the cell growth was inhibited by 50%). Type of data set: cell-based, human. The protocol: HepG2 cells plated at a density of 20,000 cells/ml in 12-well plastic dishes. Cultivation occured in Richters IMEM-ZO nutrient medium with 5% fetal calf serum (FCS) in a tissue culture incubator with a gas mixture of 5% CO2 and 95% air at a temperature of 37° C. One day after plating, the culture medium was aspirated from the cells and replaced by fresh medium which contained the respective concentrations of the test substances. For the individual concentrations and the controls without test substances, three-fold batches were done for each. Three days after the beginning of treatment, the medium was again renewed with the test compounds. After six days of substance incubation, the test was ended and the protein amount in the individual wells was determined with the sulforhodamin-B-method (according to P. Skehan et al.: New Colorimetric Cytotoxity Assay for Anticancer-Drug Screening. J. Natl. Cancer Inst. 82: 1107-1112, 1990). The IC50-values (defined as that concentration in which the cell growth was inhibited by 50%) was taken from the dose-response curves and given as a comparative measurement for the activity of the test compounds.

The subject of data set [2] is lymphocytes from the spleen of a Swiss mouse. Description: Immunosuppressing activity: vitality of freshly isolated spleen lymphocytes, flow-through cytometer. In kind it is cell-based. As to conditions: 2 days incubation, read-out: IC50 (percentage amount of vital cells). The text has this:
Many anti-tumor agents have not only a cytotoxic effect on tumor cells, but also on the blood cell system. This leads to a weakening of the immune defence, which can, in turn, be specifically employed to suppress the rejection reaction after an organ transplantation for example. Therefore, a use of the main compounds, optionally in combination with other compounds effective for these indications is suitable in diseases such as psoriasis or autoimmune diseases. In order to test the possibility for a therapeutic use in illnesses of this type, the substance activity was tested on freshly isolated lymphocytes as follows:
The spleen of a Swiss mouse served as a lymphocyte source. The lymphocyte population was isolated from the spleen cell suspension over a ficoll gradient and taken up in IMEM-ZO culture medium with 0,1% dextran 70,000 and 2% fetal calf serum. The cells were plated at a density of ca. 500,000 cells/well/ml in a 12-well plate, 1 ml doubly concentrated test substance solution was pipetted per well and this was subsequently incubated in a tissue culture incubator at 37° C. and 5% CO2. After 2 days, a 1 ml-aliquot with 5 μl of the fluorescent dye solutions propidium iodide (8 mg/ml) and 3,3′-dihexyloxacarbocyanin iodide (40 μg/ml) each was added per well, and incubated for 3 minutes at room temperature. Subsequently, 10,000 cells per each sample were measured on a flow-through cytometer and the percentage amount of vital cells in the population was determined. By means of the dose-response curves, IC50-values were calculated which were also employed in the following Tables for the characterization of the individual substances: […]

Where two headings read alike, the source gives them in different places.

On to `O=C(C=Cc1cccnc1)NCCCCC1CCN(C2c3ccccc3CSc3ccccc32)CC1` (stereo not drawn) [Substance 136, N-{4-[1-(6,11-dihydro-dibenzo[b,e]thiepin-11-yl)-piperidin-4-yl]-butyl}-3-(pyridin-3-yl)-acrylamide], for which the melting point is 89 to 91 °C. Also, the IC50 in data set [1] (Homo sapiens, 144 h) was determined as 2000 pM.
In turn, `O=C(C=Cc1cccnc1)NCCCCC1CCN(C(=O)C(c2ccccc2)c2ccccc2)CC1` [Substance 150, N-[4-(1-diphenylacetyl-piperidin-4-yl)-butyl]-3-(pyridin-3-yl)-acrylamide] registered a melting point of 161 °C. The IC50 in data set [2] (Lymphocyte, 48 h) amounted to 200 pM.
In the case of `O=C(C=Cc1cccnc1)NCCCCC1CCN(C(=O)c2ccccc2)CC1` [Substance 159, N[4-(1-benzoylpiperidin-4-yl)-butyl]-3-(pyridin-3-yl)-acrylamide], the IC50 in data set [2] stood at 3000 pM; in data set [1] it was 500 pM.
Take `O=C(C=Cc1cccnc1)NCCCCC1CCN(C(=O)c2cccc3c2-c2ccccc2C3=O)CC1` [Substance 178, N-{4-[1-(9-oxo-9H-fluoren-4-yl-carbonyl)-piperidin-4-yl]-butyl}-3-(pyridin-3-yl)-acrylamide]: the IC50 in data set [1] (Homo sapiens, 144 h) stood at 700 pM.
`O=C(C=Cc1cccnc1)NCCCCC1CCN(C(=O)Nc2cccc3ccccc23)CC1` [Substance 195, N-{4-[1-(1-naphthylaminocarbonyl)-piperidin-4-yl]-butyl}-3-(pyridin-3-yl)-acrylamide] came in with a melting point of 198 to 200 °C. In addition, the IC50 in data set [2] (Lymphocyte, 48 h) was determined as 2000 pM.
Take `O=C(C=Cc1cccnc1)NCCCCC1CCN(C(=O)N(c2ccccc2)c2ccccc2)CC1` [Substance 199, N-{4-[1-(diphenylaminocarbonyl)-piperidin-4-yl]-butyl}-3-(pyridin-3-yl)-acrylamide]: the IC50 was determined as 40 pM in data set [2] (Lymphocyte, 48 h) and 1000 pM in data set [1] (Homo sapiens, 144 h).
Regarding `O=C(C=Cc1cccnc1)NCCCCC1CCN(S(=O)(=O)c2ccc3ccccc3c2)CC1` [Substance 219, N-{4-[1-(2-naphthyl-sulfonyl)-piperidin-4-yl]-butyl}-3-(pyridin-3-yl)-acrylamide], the melting point was 85 to 87 °C.

The values above are taken from patent publication US20040009967A1, “Pyridyl alkene- and pyridyl alkine- acid amides as cytostatics and immuno-suppressives” (Klinge Pharma GmbH, priority 1996, published 2004).
